Broadly, the EC50 is the midpoint of the concentration-response curve.

SMILES strings stand for the structures.

This is an account of results in patent publication US8003800B2, “Thiophene derivatives as S1P1/EDG1 receptor agonists” (Actelion Pharmaceuticals Ltd., priority 2006, dated 2011).

recombinant human S1P1 receptor, sequence (P21453 whole entry): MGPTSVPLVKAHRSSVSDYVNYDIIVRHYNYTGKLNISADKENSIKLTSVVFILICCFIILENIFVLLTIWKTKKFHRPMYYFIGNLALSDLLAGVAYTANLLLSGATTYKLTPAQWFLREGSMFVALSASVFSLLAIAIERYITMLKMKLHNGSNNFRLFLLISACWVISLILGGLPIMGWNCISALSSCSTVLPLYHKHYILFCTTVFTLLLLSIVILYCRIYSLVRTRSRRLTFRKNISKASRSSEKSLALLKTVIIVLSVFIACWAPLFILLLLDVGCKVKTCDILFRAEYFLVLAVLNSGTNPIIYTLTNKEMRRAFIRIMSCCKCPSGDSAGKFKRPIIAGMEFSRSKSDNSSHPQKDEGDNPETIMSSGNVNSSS

The test system of one assay is circulating lymphocytes. Description: Assessment of in vivo efficacy: circulating lymphocytes after oral administration. The arrangement: unit not given here. The following applies: 6 h after oral administration of 10 mg/kg to normotensive male Wistar rats, as compared to vehicle-treated group; mean±SEM. On the procedure: The efficacy of the compounds of Formula (I) is assessed by measuring the circulating lymphocytes after oral administration of 3 to 30 mg/kg of a compound of Formula (I) to normotensive male Wistar rats. The animals are housed in climate-controlled conditions with a 12 h-light/dark cycle, and have free access to normal rat chow and drinking water. Blood is collected before and 3, 6 and 24 h after drug administration. Full blood is subjected to hematology using Advia Hematology system (Bayer Diagnostics, Züurich, Switzerland).
All data are presented as mean±SEM. Statistical analyses are performed by analysis of variance (ANOVA) using Statistica (StatSoft) and the Student-Newman-Keuls procedure for multiple comparisons. The null hypothesis is rejected when p<0.05.
Consider `Cc1cc(-c2noc(-c3scc(CC(C)C)c3C)n2)cc(C)c1OCC(O)CNC(=O)CO` (racemic) [Example 23, rac-2-Hydroxy-N-(2-hydroxy-3-{4-[5-(4-isobutyl-3-methyl-thiophen-2-yl)-[1,2,4]oxadiazol-3-yl]-2,6-dimethyl-phenoxy}-propyl)acetamide], for which the Lymphocyte counts is −73 ± 2.

Take `Cc1cc(-c2noc(-c3sc(C)c(CC(C)C)c3C)n2)cc(C)c1OCC(O)CNC(=O)CO` (racemic) [Example 50, rac-2-Hydroxy-N-(2-hydroxy-3-{4-[5-(4-isobutyl-3,5-dimethyl-thiophen-2-yl)-[1,2,4]oxadiazol-3-yl]-2,6-dimethyl-phenoxy}-propyl)acetamide]: the Lymphocyte counts is on record as −93 ± 1.

In the case of `COc1cc(OCC(O)CNC(=O)CO)ccc1-c1noc(-c2cc(CC(C)C)c(C)s2)n1` (stereo not drawn) [Example 46, 2-hydroxy-N-(2-hydroxy-3-{4-[5-(4-isobutyl-5-methyl-thiophen-2-yl)-[1,2,4]oxadiazol-3-yl]-3-methoxy-phenoxy}-propyl)-acetamide], the Lymphocyte counts is reported as −77 ± 3.

In turn, `CCc1cc(-c2nnc(-c3cc(CC(C)C)c(C)s3)o2)cc(C)c1OC[C@@H](O)CNC(=O)CO` [Example 64, N—((S)-3-{2-ethyl-4-[5-(4-isobutyl-5-methyl-thiophen-2-yl)-[1,3,4]oxadiazol-2-yl]-6-methyl-phenoxy}-2-hydroxy-propyl)-2-hydroxy-acetamide] yielded a Lymphocyte counts of −66 ± 1.

The target of another assay is recombinant human S1P1 receptor (Homo sapiens, UniProt P21453). Description: GTPγS assay to determine EC50 values. The following applies: 35S-GTPγS binding, membrane preparations of CHO cells expressing recombinant human S1P1 receptor, pH 7.4. It counts as biochemical. On the procedure:
GTPγS binding assays are performed in 96 well microtiter plates (Nunc, 442587) in a final volume of 200 μl, using membrane preparations of CHO cells expressing recombinant human S1P1 receptor. Assay conditions are 20 mM Hepes (Fluka, 54461), 100 mM NaCl (Fluka, 71378), 5 mM MgCl2 (Fluka, 63064), 0.1% BSA (Calbiochem, 126609), 1 μM GDP (Sigma, G-7127), 2.5% DMSO (Fluka, 41644), […] ^35S-GTPγS (Amersham Biosciences, SJ1320). The pH is 7.4. Test compounds are dissolved and diluted in 100% DMSO and pre-incubated at room temperature for 30 min in 150 μl of the above assay buffer, in the absence of ^35S-GTPγS. After addition of 50 μl of ^35S-GTPγS, the assay is incubated for 1 h at rt. The assay is terminated by transfer of the reaction mixture to a Multiscreen plate (Millipore, MAHFC1H60) using a cell harvester from Packard Biosciences, and the plates are washed with ice-cold 10 mM Na2HPO4/NaH2PO4 (70%/30%), dried, sealed at the bottom and, after addition of 25 μl MicroScint20 (Packard Biosciences, order #6013621), sealed on the top. Membrane-bound ^35S-GTPγS is measured with a TopCount from Packard Biosciences.
EC50 is the concentration of agonist inducing 50% of the maximal specific ^35S-GTPγS binding. Specific binding is determined by subtracting non-specific binding from maximal binding. Maximal binding is the amount of cpm bound to the Multiscreen plate in the presence of 10 μM of S1P. Non-specific binding is the amount of binding in the absence of an agonist in the assay.
The EC50 values were determined according to the method described above: […]
On to `Cc1cc(-c2noc(-c3sc(C)c(CC(C)C)c3C)n2)cc(C)c1OCC(O)CNC(=O)CO` (racemic) [Example 50, rac-2-Hydroxy-N-(2-hydroxy-3-{4-[5-(4-isobutyl-3,5-dimethyl-thiophen-2-yl)-[1,2,4]oxadiazol-3-yl]-2,6-dimethyl-phenoxy}-propyl)acetamide], for which the concentration giving a half-maximal response (EC50) stood at 2.1 nM.

Turning to `Cc1cc(-c2noc(-c3scc(CC(C)C)c3C)n2)cc(C)c1OC[C@@H](O)CNC(=O)CO` [Example 70, (S)-2-Hydroxy-N-(2-hydroxy-3-{4-[5-(4-isobutyl-3-methyl-thiophen-2-yl)-[1,2,4]oxa-diazol-3-yl]-2,6-dimethyl-phenoxy}-propyl)-acetamide], the concentration for a half-maximal effect (EC50) came out at 1.1 nM.

In the case of `Cc1cc(CCC(=O)c2scc(CC(C)C)c2CC(C)C)cc(C)c1O` [Example 7, 1-(3,4-diisobutyl-thiophen-2-yl)-3-(4-hydroxy-3,5-dimethyl-phenyl)-propan-1-one], the concentration for a half-maximal effect (EC50) is 8.4 nM.

In the case of `CCc1cc(-c2noc(-c3cc(CC(C)C)c(C)s3)n2)cc(C)c1OCC(O)CNC(=O)CO` (racemic) [Example 16, rac-N-(3-{2-Ethyl-4-[5-(4-isobutyl-5-methyl-thiophen-2-yl)-[1,2,4]oxadiazol-3-yl]-6-methyl-phenoxy}-2-hydroxy-propyl)-2-hydroxy-acetamide], the EC50 was 5.5 nM.

As for `CCc1cc(-c2noc(-c3cc(CC(C)C)c(C)s3)n2)cc(C)c1CCC(=O)NCCO` [Example 58, 3-{2-ethyl-4-[5-(4-isobutyl-5-methyl-thiophen-2-yl)-[1,2,4]oxadiazol-3-yl]-6-methyl-phenyl}-N-(2-hydroxy-ethyl)-propionamide], the EC50 came to 7.5 nM.

With `CCCc1c(CC(C)C)csc1C(=O)/C=C/c1cc(C)c(O)c(C)c1` [Example 3, 3-(4-Hydroxy-3,5-dimethyl-phenyl)-1-(4-isobutyl-3-propyl-thiophen-2-yl)-propenone], the EC50 was 5.8 nM.

For `CCCc1c(CC(C)C)csc1C(=O)CCc1cc(C)c(OC[C@@H](O)CO)c(C)c1` [Example 8, 3-[4-((S)-2,3-dihydroxy-propoxy)-3,5-dimethyl-phenyl]-1-(4-isobutyl-3-propyl-thiophen-2-yl)-propan-1-one], the half-maximal effective concentration (EC50) was 7.5 nM.

In the case of `CCc1cc(-c2nnc(-c3sc(C)c(CC(C)C)c3C)o2)cc(C)c1OC[C@@H](O)CNC(=O)CO` [Example 109, (S)—N-(3-{2-Ethyl-4-[5-(4-isobutyl-3,5-dimethyl-thiophen-2-yl)-[1,3,4]oxadiazol-2-yl]-6-methyl-phenoxy}-2-hydroxy-propyl)-2-hydroxy-acetamide], the half-maximal effective concentration (EC50) was found to be 0.4 nM.
